Laboratory results as given in PMC4822888, “Subtype-Selective Small Molecule Inhibitors Reveal a Fundamental Role for Nav1.7 in Nociceptor Electrogenesis, Axonal Conduction and Presynaptic Release” (PLoS ONE, 2016).
Where “and” joins values, the source holds several entries; their conditions need not be identical. Equal values may be shown once.

Assays:
FLT-1 kinase = FLT-1 kinase (Homo sapiens, UniProt P17948); assay: Off target activity panel; assay type: biochemical; details: read-out: Inhibition at test concentration (%)
[1] = system: human DRG neurons (hDRG neurons); assay: Current clamp of action potentials in human DRG neurons; assay type: cell-based
Neurokinin NK2 receptor = Neurokinin NK2 receptor (Homo sapiens, UniProt P21452); assay: Off target activity panel; assay type: binding; details: read-out: Inhibition at test concentration (%)
[2] = system: Cloride channel (GABA-gated); assay: Off target activity panel; assay type: binding
Abl kinase receptor = Abl kinase receptor (Homo sapiens, UniProt P00519); assay: Off target activity panel; assay type: biochemical; details: read-out: Inhibition at test concentration (%)
Kappa opioid receptor [3] = target: T1, Kappa opioid receptor (Homo sapiens, UniProt P41145); assay: Off target activity panel; assay type: binding
Somatostatin receptor 4 = Somatostatin receptor 4 (Homo sapiens, UniProt P31391); assay: Off target activity panel; assay type: binding; details: read-out: Inhibition at test concentration (%)
[4] = system: Calcium channel L-type (diltiazem site); assay: Off target activity panel; assay type: binding; details: 10 µM
Dopamine D2 receptor = Dopamine D2 receptor (Homo sapiens, UniProt P14416); assay: Off target activity panel; assay type: binding; details: read-out: Inhibition at test concentration (%)
PPAR gamma [5] = target: T2, PPAR gamma (Homo sapiens, UniProt P37231); assay: Off target activity panel; assay type: binding
T2 sequence (P37231 1-505): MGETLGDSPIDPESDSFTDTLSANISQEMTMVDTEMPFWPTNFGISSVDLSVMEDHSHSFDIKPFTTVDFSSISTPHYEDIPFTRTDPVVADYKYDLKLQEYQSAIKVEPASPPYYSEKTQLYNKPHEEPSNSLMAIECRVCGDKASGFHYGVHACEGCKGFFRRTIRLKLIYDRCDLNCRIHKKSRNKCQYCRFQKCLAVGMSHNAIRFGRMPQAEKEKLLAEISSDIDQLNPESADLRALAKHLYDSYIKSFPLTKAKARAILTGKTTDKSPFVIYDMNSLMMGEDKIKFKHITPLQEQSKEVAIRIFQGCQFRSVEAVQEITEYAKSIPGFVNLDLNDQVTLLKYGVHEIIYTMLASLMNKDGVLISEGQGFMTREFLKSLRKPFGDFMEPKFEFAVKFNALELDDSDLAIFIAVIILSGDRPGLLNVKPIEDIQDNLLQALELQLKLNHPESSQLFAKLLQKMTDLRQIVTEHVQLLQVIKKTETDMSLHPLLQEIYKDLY

Cyclooxygenase 1 = Cyclooxygenase 1 (Homo sapiens, UniProt P23219); assay: Off target activity panel; assay type: biochemical; details: read-out: Inhibition at test concentration (%)
PDE4 rolipram binding = assay: Off target activity panel; details: 10 µM
Adenosine A3 receptor = Adenosine A3 receptor (Homo sapiens, UniProt P0DMS8); assay: Off target activity panel; assay type: binding; details: read-out: Inhibition at test concentration (%)
Cyclooxegenase 2 = Cyclooxegenase 2 (Homo sapiens, UniProt P35354); assay: Off target activity panel; assay type: biochemical
PDE3B = PDE3B (Homo sapiens, UniProt Q13370); assay: Off target activity panel; assay type: biochemical; details: read-out: Inhibition at test concentration (%)
PPAR gamma [6] = target: T2, PPAR gamma; assay: Off target panel, functional activity (agonist/antagonist); assay type: biochemical; details: at 10 µM
Serotonin 5-HT2C [7] = target: T3, Serotonin 5-HT2C (Homo sapiens, UniProt P28335); assay: Off target activity panel (first 5-HT2C line); assay type: binding; details: read-out: Inhibition at test concentration (%)
[8] = target: Cholycystokinin 1 (CCKA) receptor (Homo sapiens, UniProt P32238); assay: Off target activity panel; assay type: binding; details: read-out: Inhibition at test concentration (%)
human TRPV1 receptor = human TRPV1 receptor (Homo sapiens, UniProt Q8NER1); assay: Blockade of human TRPV1 receptor
Adenosine A2a receptor = Adenosine A2a receptor (Homo sapiens, UniProt P29274); assay: Off target activity panel; assay type: binding; details: read-out: Inhibition at test concentration (%)
Kappa opioid receptor [9] = target: T1, Kappa opioid receptor; assay: Off target panel, functional activity (agonist/antagonist); assay type: biochemical; details: at 10 µM
Choline transporter = Choline transporter (Homo sapiens, UniProt Q9GZV3); assay: Off target activity panel; assay type: binding; details: read-out: Inhibition at test concentration (%)
Cannabinoid receptor 1 = Cannabinoid receptor 1 (Homo sapiens, UniProt P21554); assay: Off target activity panel; assay type: binding; details: read-out: Inhibition at test concentration (%)
Serotonin 5-HT2C [10] = target: T3, Serotonin 5-HT2C; assay: Off target activity panel (second 5-HT2C line); assay type: binding; details: read-out: Inhibition at test concentration (%)
Dopamine D3 receptor = Dopamine D3 receptor (Homo sapiens, UniProt P35462); assay: Off target activity panel; assay type: binding; details: read-out: Inhibition at test concentration (%)
[11] = system: Nictotinic acetylcholine receptor; assay: Off target activity panel; assay type: binding; details: 10 µM
[12] = target: Norepinephrine transporter (Homo sapiens, UniProt P23975); assay: Off target activity panel; assay type: binding; details: read-out: Inhibition at test concentration (%)
GABA transporter = assay: Off target activity panel; assay type: binding; details: 10 µM
[13] = target: Adrenergic alpha 2A receptor (Homo sapiens, UniProt P08913); assay: Off target activity panel; assay type: binding; details: read-out: Inhibition at test concentration (%)
KvLQT = KvLQT (Homo sapiens, UniProt P51787); assay: Blockade of KvLQT potassium channels
[14] = target: Angiotensin converting enzyme (Homo sapiens, UniProt P12821); assay: Off target activity panel; assay type: biochemical; details: read-out: Inhibition at test concentration (%)
[15] = target: Melanin-concentrating hormone receptor 1 (Homo sapiens, UniProt Q99705); assay: Off target activity panel; assay type: binding; details: read-out: Inhibition at test concentration (%)
p38alpha kinase = p38alpha kinase (Homo sapiens, UniProt Q16539); assay: Off target activity panel; assay type: biochemical; details: read-out: Inhibition at test concentration (%)
Lyn A kinase = Lyn A kinase (Homo sapiens, UniProt P07948); assay: Off target activity panel; assay type: biochemical
[16] = system: cynomolgus TRPV1 receptor; assay: Blockade of cynomolgus TRPV1 receptor; details: tested concentrations up to 10 μM
PDE5 = PDE5 (Homo sapiens, UniProt O76074); assay: Off target activity panel; assay type: biochemical; details: read-out: Inhibition at test concentration (%)
[17] = 10 µM, read-out: Inhibition at test concentration (%)

T1 sequence (P41145 whole entry): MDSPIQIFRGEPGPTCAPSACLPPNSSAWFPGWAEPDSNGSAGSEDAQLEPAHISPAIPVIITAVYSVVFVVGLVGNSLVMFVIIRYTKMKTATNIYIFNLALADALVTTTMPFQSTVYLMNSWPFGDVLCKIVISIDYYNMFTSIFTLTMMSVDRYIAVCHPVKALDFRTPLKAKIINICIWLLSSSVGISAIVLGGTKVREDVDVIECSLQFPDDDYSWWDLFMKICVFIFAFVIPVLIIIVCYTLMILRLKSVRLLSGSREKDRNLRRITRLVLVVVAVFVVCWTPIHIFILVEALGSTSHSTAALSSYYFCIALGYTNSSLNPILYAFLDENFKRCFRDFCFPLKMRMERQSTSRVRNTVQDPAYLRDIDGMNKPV
Lyn A kinase, sequence (P07948 whole entry): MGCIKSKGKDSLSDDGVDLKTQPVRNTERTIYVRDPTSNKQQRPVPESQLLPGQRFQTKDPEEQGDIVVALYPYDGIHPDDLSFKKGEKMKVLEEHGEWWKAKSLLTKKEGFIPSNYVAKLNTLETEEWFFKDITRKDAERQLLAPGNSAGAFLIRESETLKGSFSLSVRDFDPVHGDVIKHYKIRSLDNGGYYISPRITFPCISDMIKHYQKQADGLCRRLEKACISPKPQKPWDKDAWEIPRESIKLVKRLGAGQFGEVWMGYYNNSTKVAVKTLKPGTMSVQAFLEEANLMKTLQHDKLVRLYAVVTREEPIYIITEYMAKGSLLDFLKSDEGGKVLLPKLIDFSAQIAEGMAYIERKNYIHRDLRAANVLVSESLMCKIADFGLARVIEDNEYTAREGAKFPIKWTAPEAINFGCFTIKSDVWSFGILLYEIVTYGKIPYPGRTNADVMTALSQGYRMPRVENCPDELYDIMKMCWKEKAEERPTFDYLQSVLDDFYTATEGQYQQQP
Cyclooxegenase 2, sequence (P35354 18-604): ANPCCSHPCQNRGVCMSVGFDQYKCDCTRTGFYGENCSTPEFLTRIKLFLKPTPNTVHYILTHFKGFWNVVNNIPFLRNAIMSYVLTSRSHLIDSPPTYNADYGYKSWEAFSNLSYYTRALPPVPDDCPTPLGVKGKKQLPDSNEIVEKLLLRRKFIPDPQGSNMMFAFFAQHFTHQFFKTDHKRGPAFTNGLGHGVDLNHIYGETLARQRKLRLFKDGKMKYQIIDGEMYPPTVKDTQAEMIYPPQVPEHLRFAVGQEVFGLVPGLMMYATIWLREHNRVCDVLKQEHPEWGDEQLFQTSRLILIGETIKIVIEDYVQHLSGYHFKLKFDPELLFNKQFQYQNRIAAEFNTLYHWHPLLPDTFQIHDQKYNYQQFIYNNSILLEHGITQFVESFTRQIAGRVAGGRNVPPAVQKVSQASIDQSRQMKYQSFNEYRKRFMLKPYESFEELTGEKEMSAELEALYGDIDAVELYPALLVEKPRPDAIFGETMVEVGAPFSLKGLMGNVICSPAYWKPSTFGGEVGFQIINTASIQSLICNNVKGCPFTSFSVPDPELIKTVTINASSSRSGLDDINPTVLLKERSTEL
human TRPV1 receptor, sequence (Q8NER1 whole entry): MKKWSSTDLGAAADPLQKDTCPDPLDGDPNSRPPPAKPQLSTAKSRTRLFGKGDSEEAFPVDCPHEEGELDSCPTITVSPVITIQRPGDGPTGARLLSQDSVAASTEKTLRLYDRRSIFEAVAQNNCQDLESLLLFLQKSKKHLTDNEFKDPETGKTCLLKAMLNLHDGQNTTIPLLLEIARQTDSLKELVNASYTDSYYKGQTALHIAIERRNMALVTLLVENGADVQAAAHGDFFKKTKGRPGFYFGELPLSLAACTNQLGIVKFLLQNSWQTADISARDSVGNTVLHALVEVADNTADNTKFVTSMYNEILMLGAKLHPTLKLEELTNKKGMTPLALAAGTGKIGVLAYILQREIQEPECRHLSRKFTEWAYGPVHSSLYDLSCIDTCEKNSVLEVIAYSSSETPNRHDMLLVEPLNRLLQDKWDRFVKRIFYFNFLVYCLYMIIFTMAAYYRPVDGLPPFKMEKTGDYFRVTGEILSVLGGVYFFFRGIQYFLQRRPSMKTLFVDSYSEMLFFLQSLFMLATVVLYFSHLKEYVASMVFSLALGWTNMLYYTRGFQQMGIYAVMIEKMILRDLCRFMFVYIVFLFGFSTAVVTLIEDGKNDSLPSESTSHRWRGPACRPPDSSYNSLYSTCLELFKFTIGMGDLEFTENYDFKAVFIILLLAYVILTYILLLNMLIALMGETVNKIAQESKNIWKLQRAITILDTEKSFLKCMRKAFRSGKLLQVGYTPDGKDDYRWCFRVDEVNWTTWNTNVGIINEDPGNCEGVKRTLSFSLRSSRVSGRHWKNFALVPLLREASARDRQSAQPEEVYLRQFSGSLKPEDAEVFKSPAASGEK
T3 sequence (P28335 33-458): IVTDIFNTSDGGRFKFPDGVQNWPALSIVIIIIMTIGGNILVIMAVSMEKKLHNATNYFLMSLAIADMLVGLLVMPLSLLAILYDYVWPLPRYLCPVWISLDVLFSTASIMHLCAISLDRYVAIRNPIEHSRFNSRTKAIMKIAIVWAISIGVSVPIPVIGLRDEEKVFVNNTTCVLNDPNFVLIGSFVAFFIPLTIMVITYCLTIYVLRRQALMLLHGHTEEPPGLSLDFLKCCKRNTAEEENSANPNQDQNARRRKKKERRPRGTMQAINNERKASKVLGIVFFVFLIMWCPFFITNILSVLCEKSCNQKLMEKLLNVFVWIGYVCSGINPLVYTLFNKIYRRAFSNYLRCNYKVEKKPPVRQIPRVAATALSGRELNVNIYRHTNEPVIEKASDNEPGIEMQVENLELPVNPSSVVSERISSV
Dopamine D3 receptor, sequence (P35462 whole entry): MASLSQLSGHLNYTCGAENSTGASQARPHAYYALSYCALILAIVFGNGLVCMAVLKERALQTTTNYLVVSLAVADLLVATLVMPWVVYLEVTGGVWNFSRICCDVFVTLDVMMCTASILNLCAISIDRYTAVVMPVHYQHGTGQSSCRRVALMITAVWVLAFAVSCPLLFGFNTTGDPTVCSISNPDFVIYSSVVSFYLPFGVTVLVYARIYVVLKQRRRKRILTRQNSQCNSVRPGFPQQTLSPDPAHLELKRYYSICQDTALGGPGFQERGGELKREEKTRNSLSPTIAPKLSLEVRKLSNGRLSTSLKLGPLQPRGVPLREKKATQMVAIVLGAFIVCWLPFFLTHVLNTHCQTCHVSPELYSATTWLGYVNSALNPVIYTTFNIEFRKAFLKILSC
KvLQT, sequence (P51787 whole entry): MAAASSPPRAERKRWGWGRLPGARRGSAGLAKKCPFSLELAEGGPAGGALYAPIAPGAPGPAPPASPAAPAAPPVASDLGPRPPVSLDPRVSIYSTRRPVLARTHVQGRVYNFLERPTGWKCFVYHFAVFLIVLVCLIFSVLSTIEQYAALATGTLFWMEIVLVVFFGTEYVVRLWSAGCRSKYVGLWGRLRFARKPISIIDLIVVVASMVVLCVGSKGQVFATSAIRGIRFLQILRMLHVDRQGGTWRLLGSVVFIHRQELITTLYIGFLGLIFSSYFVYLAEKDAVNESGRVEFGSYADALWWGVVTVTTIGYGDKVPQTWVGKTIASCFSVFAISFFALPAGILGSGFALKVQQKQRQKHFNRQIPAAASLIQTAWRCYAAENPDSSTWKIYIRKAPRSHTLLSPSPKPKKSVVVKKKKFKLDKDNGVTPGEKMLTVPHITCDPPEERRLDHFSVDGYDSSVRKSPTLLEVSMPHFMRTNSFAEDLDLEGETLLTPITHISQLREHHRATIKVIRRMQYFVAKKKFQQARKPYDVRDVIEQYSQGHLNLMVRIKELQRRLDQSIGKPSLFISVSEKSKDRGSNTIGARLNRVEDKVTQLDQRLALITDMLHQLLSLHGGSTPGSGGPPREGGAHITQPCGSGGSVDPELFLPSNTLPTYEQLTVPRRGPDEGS
p38alpha kinase, sequence (Q16539 whole entry): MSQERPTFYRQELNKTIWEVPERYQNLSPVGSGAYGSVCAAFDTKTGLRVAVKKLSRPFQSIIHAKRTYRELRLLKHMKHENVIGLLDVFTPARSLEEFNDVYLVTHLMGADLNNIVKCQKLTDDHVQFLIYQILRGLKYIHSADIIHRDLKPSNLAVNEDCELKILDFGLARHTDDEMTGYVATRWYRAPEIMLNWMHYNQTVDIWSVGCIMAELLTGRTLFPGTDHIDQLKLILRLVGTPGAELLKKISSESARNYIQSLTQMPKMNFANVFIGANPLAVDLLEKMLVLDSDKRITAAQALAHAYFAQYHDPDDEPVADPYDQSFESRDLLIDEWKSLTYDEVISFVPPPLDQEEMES
Melanin-concentrating hormone receptor 1, sequence (Q99705 whole entry): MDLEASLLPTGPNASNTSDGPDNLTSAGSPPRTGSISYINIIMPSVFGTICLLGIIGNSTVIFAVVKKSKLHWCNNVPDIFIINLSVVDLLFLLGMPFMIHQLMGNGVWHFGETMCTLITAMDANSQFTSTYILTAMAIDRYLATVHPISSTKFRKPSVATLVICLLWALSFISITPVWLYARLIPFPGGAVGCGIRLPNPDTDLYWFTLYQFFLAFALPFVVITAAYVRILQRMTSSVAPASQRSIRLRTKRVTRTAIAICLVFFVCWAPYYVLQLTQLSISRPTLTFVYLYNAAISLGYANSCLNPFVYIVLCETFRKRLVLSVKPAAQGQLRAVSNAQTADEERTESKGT
Dopamine D2 receptor, sequence (P14416 whole entry): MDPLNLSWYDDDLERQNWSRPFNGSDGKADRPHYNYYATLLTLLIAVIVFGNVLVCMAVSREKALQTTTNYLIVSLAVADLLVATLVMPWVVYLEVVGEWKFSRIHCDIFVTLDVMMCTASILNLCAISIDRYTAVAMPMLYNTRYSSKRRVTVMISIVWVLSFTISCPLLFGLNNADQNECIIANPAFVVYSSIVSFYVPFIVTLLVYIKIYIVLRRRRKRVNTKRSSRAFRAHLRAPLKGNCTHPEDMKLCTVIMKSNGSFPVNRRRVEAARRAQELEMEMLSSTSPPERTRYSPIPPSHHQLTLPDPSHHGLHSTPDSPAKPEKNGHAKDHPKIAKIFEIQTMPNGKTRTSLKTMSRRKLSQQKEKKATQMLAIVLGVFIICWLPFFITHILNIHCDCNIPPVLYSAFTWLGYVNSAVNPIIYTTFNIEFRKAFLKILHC

Structure (SMILES): Nc1[nH]ncc1-c1cc(Cl)ccc1Oc1cc(F)c(S(=O)(=O)Nc2cscn2)cc1Cl [PF-05089771, 4-[2-(5-amino-1H-pyrazol-4-yl)-4-chlorophenoxy]-5-chloro-2-fluoro-N-(1,3-thiazol-4-yl)benzenesulfonamide]
- inhibition at 10 µM (FLT-1 kinase): 14%
- Neurons with action potential block ([1]; 30 nM): 3 out of 7 and 3/7
- Neurons with action potential failure ([1]; 100 nM): 5 out of 8 and 5/8
- inhibition at 10 µM (Neurokinin NK2 receptor): -10%
- Inhibition at test concentration (%) ([2]; 10 µM): 54%
- Ki ([2]; Cloride channel (GABA-gated)): 8.3 µM
- inhibition at 10 µM (Abl kinase receptor): 9%
- inhibition at 10 µM (Kappa opioid receptor [3]; [17]): 86%
- Ki (Kappa opioid receptor [3]; Kappa opioid receptor): 0.39 µM
- inhibition at 10 µM (Somatostatin receptor 4): 5%
- Inhibition at test concentration (%) [4]: 16%
- inhibition at 10 µM (Dopamine D2 receptor): 10%
- inhibition at 10 µM (PPAR gamma [5]; [17]): 60%
- Ki (PPAR gamma [5]; PPAR gamma): 2.8 µM
- inhibition at 10 µM (Cyclooxygenase 1): 18%
- Inhibition at test concentration (%) (PDE4 rolipram binding): 10%
- inhibition at 10 µM (Adenosine A3 receptor): 4%
- inhibition at 10 µM (Cyclooxegenase 2; [17]): 72%
- Ki (Cyclooxegenase 2; Cyclooxegenase 2): 5.4 µM
- inhibition at 10 µM (PDE3B): 4%
- Functional activity (PPAR gamma [6]): no agonist or antagonist activity at 10 µM
- inhibition at 10 µM (Serotonin 5-HT2C [7]): -4%
- inhibition at 10 µM [8]: 17%
- Functional activity (human TRPV1 receptor; at 20 µM, TRPV1): No agonist or antagonist activity at 20 µM
- Blockade of human TRPV1 receptor (human TRPV1 receptor; tested concentrations up to 20 μM): No blockade
- inhibition at 10 µM (Adenosine A2a receptor): 15%
- Functional activity (Kappa opioid receptor [9]): no agonist or antagonist activity at 10 µM
- inhibition at 10 µM (Choline transporter): 18%
- inhibition at 10 µM (Cannabinoid receptor 1): 0%
- inhibition at 10 µM (Serotonin 5-HT2C [10]): 4%
- inhibition at 10 µM (Dopamine D3 receptor): 16%
- Inhibition at test concentration (%) [11]: -7%
- inhibition at 10 µM [12]: 27%
- Inhibition at test concentration (%) (GABA transporter): 1%
- inhibition at 10 µM [13]: 10%
- IC50 (KvLQT): 10 µM
- inhibition at 10 µM [14]: -4%
- inhibition at 10 µM [15]: -7%
- inhibition at 10 µM (p38alpha kinase): 8%
- inhibition at 10 µM (Lyn A kinase; [17]): 51%
- Ki (Lyn A kinase; Lyn A kinase): 7.3 µM
- Blockade of cynomolgus TRPV1 receptor [16]: No blockade
- inhibition at 10 µM (PDE5): 7%
